We go through 11 molecules from ChEMBL document CHEMBL1201862, “PubChem BioAssay data set” (2004).

Test systems include SK-MEL-5; TK-10; NCI-H23; MDA-MB-435; HT-29; SN12C; CAKI-1; SF-268; EKVX; IGROV-1; OVCAR-8; MDA-MB-231; RPMI-8226; SK-MEL-28; BT-549; HOP-62; MCF7; A498; NCI-H460; HL-60.
Common to all, as to experiment: NCI anticancer screen, dose series, 48 h

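Exposure lasted 48 hours, with cells grown in 96-well plates and compounds tested at five concentrations. GI50 marks 50% less growth.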 The source made the active and inactive calls. Cut-off read from the data, not from the text of the source: active = GI50 up to about 1.1 µM and inactive = higher.

`Cc1cc2c3c(nc4ccccc42)C(=O)c2ccccc2-c3n1`: the GI50 with SK-MEL-5 is 0.569 µM (active); in the experiment on TK-10, 34.8 µM (inactive); with NCI-H23, 2.4 µM (inactive); with MDA-MB-435, 1.66 µM (inactive); with HT-29, 21.7 µM (inactive); with SN12C it was 17 µM (inactive). The GI50 with CAKI-1 is 12.3 µM (inactive); with SF-268, 30.6 µM (inactive); with EKVX, 29.4 µM (inactive); in the experiment with IGROV-1, 2.98 µM (inactive); in the experiment on OVCAR-8, 5.52 µM (inactive); in the experiment with MDA-MB-231, 18 µM (inactive). Also, the GI50 was 3.14 µM (inactive) in the experiment on RPMI-8226; 14.6 µM (inactive) in the experiment with SK-MEL-28; 16.9 µM (inactive) in the experiment with BT-549; 6.18 µM (inactive) with HOP-62; 10.5 µM (inactive) in the experiment with MCF7; 16.9 µM (inactive) in the experiment with A498.

For `Cc1nc2c(sc3nc4ccccc4n32)c(=O)[nH]1`, the GI50 in the experiment on SK-MEL-5, with TK-10, with NCI-H23, in the experiment on MDA-MB-435, in the experiment on CAKI-1 and in the experiment with SF-268 was > 100 µM (inactive) throughout. The GI50 in the experiment with EKVX was > 100 µM (inactive); with IGROV-1 it was > 100 µM (inactive); in the experiment with OVCAR-8 it was 42.5 µM (inactive); in the experiment on MDA-MB-231, > 100 µM (inactive); in the experiment with RPMI-8226, > 100 µM (inactive); in the experiment with SK-MEL-28 it was > 100 µM (inactive). Besides, the GI50 in the experiment with BT-549, in the experiment on HOP-62, with MCF7 and in the experiment on A498 was > 100 µM (inactive) each time.

`C/C=C\C(CC(=O)NCCC1CN(S(=O)(=O)c2ccc(C)cc2)c2ccccc21)CC(=O)OC` (stereo unspecified): the GI50 with SK-MEL-5, in the experiment with TK-10, in the experiment with NCI-H23, in the experiment with MDA-MB-435, in the experiment on HT-29 and in the experiment with CAKI-1 was > 100 µM (inactive) throughout. Further, the GI50 in the experiment on SF-268, in the experiment with EKVX, in the experiment on IGROV-1, in the experiment with NCI-H460, in the experiment on OVCAR-8 and with MDA-MB-231 was > 100 µM (inactive) in each case. Moreover, the GI50 in the experiment with RPMI-8226, in the experiment on SK-MEL-28, in the experiment on BT-549, in the experiment on HOP-62, in the experiment with MCF7 and in the experiment with A498 was > 100 µM (inactive) throughout.

In the case of `CC(=O)NC1C(OC(C)C(=O)NC(C)C(=O)NC(CCC(=O)NCCCCCNc2ccc([N+](=O)[O-])c3[nH]c4ccccc4c(=O)c23)C(N)=O)C(O)C(CO)OC1(C)OCc1ccccc1` (stereo unspecified), the GI50 in the experiment on SK-MEL-5 was > 100 µM (inactive); in the experiment with TK-10, 11.9 µM (inactive); with NCI-H23, > 100 µM (inactive); in the experiment on MDA-MB-435, > 100 µM (inactive); in the experiment on HT-29 it was 30.9 µM (inactive); in the experiment on SN12C, > 100 µM (inactive). For the same molecule, the GI50 in the experiment on CAKI-1 was > 100 µM (inactive); in the experiment on SF-268 it was > 100 µM (inactive); in the experiment on EKVX it was > 100 µM (inactive); in the experiment with IGROV-1, 64.1 µM (inactive); in the experiment with NCI-H460, 26.7 µM (inactive); in the experiment with OVCAR-8, 71.6 µM (inactive). Also, the GI50 in the experiment on MDA-MB-231 was 46.9 µM (inactive); in the experiment on RPMI-8226 it was 28.1 µM (inactive); in the experiment on BT-549, > 100 µM (inactive); with HOP-62, 89.7 µM (inactive); in the experiment with MCF7, 73.3 µM (inactive); with A498, > 100 µM (inactive).

Take `Cc1ccc(OCCn2cc(Nc3ccccc3)c(=O)n(CCOc3ccc(C)cc3)c2=O)cc1`: the GI50 was > 100 µM (inactive) in the experiment on SK-MEL-5; 48.4 µM (inactive) with TK-10; > 100 µM (inactive) in the experiment with NCI-H23; > 100 µM (inactive) in the experiment on MDA-MB-435; 51.1 µM (inactive) in the experiment on HT-29; > 100 µM (inactive) in the experiment with SN12C. Also, the GI50 is > 100 µM (inactive) in the experiment with CAKI-1; 35.6 µM (inactive) in the experiment with SF-268; > 100 µM (inactive) in the experiment with EKVX; 50.8 µM (inactive) with IGROV-1; > 100 µM (inactive) in the experiment on NCI-H460; 40.6 µM (inactive) in the experiment on OVCAR-8. Moreover, the GI50 in the experiment on MDA-MB-231 is 69.5 µM (inactive); in the experiment with RPMI-8226, > 100 µM (inactive); in the experiment with SK-MEL-28, > 100 µM (inactive); in the experiment on BT-549, > 100 µM (inactive); with MCF7 it was > 100 µM (inactive); in the experiment with A498, > 100 µM (inactive).

With `O=C(NC(CCCCN1C(=O)c2ccccc2C1=O)P(=O)(Oc1ccccc1)Oc1ccccc1)OCc1ccccc1` (stereo unspecified), the GI50 in the experiment on SK-MEL-5 was > 100 µM (inactive); in the experiment on TK-10, > 100 µM (inactive); in the experiment with NCI-H23 it was 7.33 µM (inactive); in the experiment with MDA-MB-435, > 100 µM (inactive); in the experiment on HT-29, > 100 µM (inactive); with SN12C it was > 100 µM (inactive). In addition, the GI50 in the experiment on CAKI-1, with SF-268, with EKVX, in the experiment with IGROV-1, in the experiment on NCI-H460 and with OVCAR-8 was > 100 µM (inactive) throughout. For the same molecule, the GI50 in the experiment with RPMI-8226 is > 100 µM (inactive); in the experiment on SK-MEL-28, > 100 µM (inactive); with BT-549, > 100 µM (inactive); in the experiment with HOP-62, 71.8 µM (inactive); in the experiment with MCF7, > 100 µM (inactive).

With `Cc1ccc(C2(c3ccc(C)c(O)c3C)CCN(C)CC2)c(C)c1O`, the GI50 in the experiment on SK-MEL-5 is > 100 µM (inactive); in the experiment on TK-10 it was 19.9 µM (inactive); with NCI-H23, > 100 µM (inactive); in the experiment on MDA-MB-435 it was 92.9 µM (inactive); with HT-29 it was 45.1 µM (inactive); with SN12C it was 37.2 µM (inactive). The GI50 is > 100 µM (inactive) with CAKI-1; > 100 µM (inactive) with SF-268; 44.4 µM (inactive) with EKVX; > 100 µM (inactive) in the experiment with IGROV-1; 15.7 µM (inactive) in the experiment on NCI-H460; > 100 µM (inactive) with OVCAR-8. Besides, the GI50 in the experiment on MDA-MB-231 was 34.8 µM (inactive); in the experiment with RPMI-8226, > 100 µM (inactive); with SK-MEL-28, 30.4 µM (inactive); in the experiment with BT-549, > 100 µM (inactive); with HOP-62 it was 51.2 µM (inactive); with A498, 41.7 µM (inactive).

With `O=c1[nH]nc(Cc2ccc([N+](=O)[O-])cc2)[nH]1`, the GI50 in the experiment with SK-MEL-5, in the experiment on TK-10, with NCI-H23, in the experiment on MDA-MB-435, with HT-29 and in the experiment on SN12C was > 100 µM (inactive) in each case. Besides, the GI50 in the experiment on CAKI-1 is > 100 µM (inactive); with SF-268, > 100 µM (inactive); with EKVX, 54.6 µM (inactive); with IGROV-1, > 100 µM (inactive); in the experiment on HL-60, > 100 µM (inactive); with NCI-H460, > 100 µM (inactive). For the same molecule, the GI50 in the experiment with OVCAR-8, in the experiment with RPMI-8226, in the experiment with SK-MEL-28, with BT-549, in the experiment on HOP-62 and in the experiment on MCF7 was > 100 µM (inactive) each time. Further, the GI50 in the experiment on A498 was > 100 µM (inactive).

Regarding `O=C1[C@H](O)[C@@H]2C(O)O[C@H]3[C@@H]2N1C[C@H]3[Si](c1ccccc1)(c1ccccc1)c1ccccc1` (stereo partly specified), the GI50 in the experiment with SK-MEL-5, in the experiment on TK-10, with NCI-H23, in the experiment with MDA-MB-435, in the experiment with HT-29 and with CAKI-1 was > 100 µM (inactive) in each case. Also, the GI50 with SF-268, with EKVX, in the experiment on IGROV-1, with NCI-H460, in the experiment with OVCAR-8 and with MDA-MB-231 was > 100 µM (inactive) in each case. The GI50 in the experiment with RPMI-8226, in the experiment with SK-MEL-28, in the experiment on BT-549, with HOP-62, in the experiment with MCF7 and with A498 was > 100 µM (inactive) each time.

`O=C1C(=CNc2ccccc2Cl)C(=O)N(c2ccccc2)C(=O)N1c1ccccc1`: the GI50 with SK-MEL-5, in the experiment on TK-10, with NCI-H23, with MDA-MB-435, in the experiment with HT-29 and in the experiment with SN12C was > 100 µM (inactive) in each case. Also, the GI50 with CAKI-1 is > 100 µM (inactive); with SF-268, > 100 µM (inactive); in the experiment on EKVX it was > 100 µM (inactive); with IGROV-1, > 100 µM (inactive); with NCI-H460, > 100 µM (inactive); in the experiment on OVCAR-8 it was 23.7 µM (inactive). For the same molecule, the GI50 with MDA-MB-231 was > 100 µM (inactive); with RPMI-8226 it was > 100 µM (inactive); in the experiment on BT-549, > 100 µM (inactive); in the experiment on HOP-62, > 100 µM (inactive); with MCF7, > 100 µM (inactive); in the experiment with A498, 85.1 µM (inactive).

`C=CCN(c1cc(OCc2ccccc2)c2c(c1)c(C)cn2S(=O)(=O)c1ccccc1)S(C)(=O)=O`: the GI50 in the experiment on SK-MEL-5, in the experiment on TK-10, in the experiment with NCI-H23, in the experiment on MDA-MB-435, with HT-29 and in the experiment on SN12C was > 100 µM (inactive) each time. Besides, the GI50 in the experiment on CAKI-1, in the experiment on SF-268, in the experiment with EKVX, in the experiment with IGROV-1, with HL-60 and in the experiment with NCI-H460 was > 100 µM (inactive) throughout. In addition, the GI50 in the experiment with OVCAR-8, with MDA-MB-231, with RPMI-8226, in the experiment on SK-MEL-28, in the experiment with BT-549 and in the experiment with HOP-62 was > 100 µM (inactive) throughout.
